Source: patent publication US9957273B2, “5-substituted 7- [4-(2-pyridyl)phenylmethylamino] -3-isopropylpyrazolo4,3-D]pyrimidine derivatives, use thereof as medicaments, and pharmaceutical compositions” (USTAV EXPERIMENTALNI BOTANIKY AV CR, V.V.I., priority 2015, dated 2018)

Columns and labels:
[1] = test system: K562 (human chronic myelogenous leukaemia); assay: MTT cytotoxicity assay, leukemic cell line K562; format: cell-based; details: Homo sapiens, K562, 72 h, three days
Source text: (§1) Cytotoxicity of the compounds is the major property determining their antileukemic efficacy in vivo. One of the parameters used, as the basis for cytotoxicity assays, is the metabolic activity of viable cells. For example, a microtiter assay, which uses (3-(4,5-dimethylthiazol-2-yl)-2,5-diphenyltetrazolium bromide (MTT), is widely used to quantitate cell proliferation and cytotoxicity. This assay is widely used in drug screening programs and in chemosensitivity testing. Because only metabolically active living cells reduce MTT to correspond purple formazan dye, these assays detect viable cells exclusively. The quantity of reduced MTT corresponds to the number of vital cells in the culture.
(§2) The compounds were assayed using the following leukemic cell lines: K562 (human chronic myelogenous leukaemia), HL60 (human promyelocytic leukaemia), CEM (human lymphoblastoid leukaemia), THP1 (human monocytic cell line), MV4; 11 (acute myelocytic leukemia). All cell lines were grown in RPMI medium supplemented with fetal bovine serum and L-glutamine and maintained at 37° C. in a humidified atmosphere with 5% CO2. For cytotoxicity assays, 2000-5000 cells were seeded into each well of 96 well plate, allowed to stabilize for at least 8 h and then tested compounds were added at various concentrations ranging from 100 to 0.01 μM in triplicates. After three days, MTT solution (5 mg/ml; Sigma, St. Louis, USA) was added to cells and medium was replaced with DMSO after five hours. The absorbance was measured at 620 nm by employing a microplate reader. MTT assays were repeated 3 times for each drug application and untreated cells were used as reference.

[2] = test system: HL60 (human promyelocytic leukaemia); assay: MTT cytotoxicity assay, leukemic cell line HL60; format: cell-based; details: Homo sapiens, HL-60, 72 h, three days
Source text: as §1, §2

[3] = test system: CEM (human lymphoblastoid leukaemia); assay: MTT cytotoxicity assay, leukemic cell line CEM; format: cell-based; details: Homo sapiens, 72 h, three days
Source text: as §1, §2

[4] = test system: THP1 (human monocytic cell line); assay: MTT cytotoxicity assay, leukemic cell line THP1; format: cell-based; details: Homo sapiens, THP-1, 72 h, three days
Source text: as §1, §2

[5] = test system: MV4;11 (acute myelocytic leukemia); assay: MTT cytotoxicity assay, leukemic cell line MV4;11; format: cell-based; details: Homo sapiens, MV4-11, 72 h, three days
Source text: as §1, §2

[6] = test system: G361 (malignant melanoma); assay: MTT cytotoxicity assay, solid cancer cell line G361; format: cell-based; details: Homo sapiens, G-361, 72 h, three days
Description: as §2, with “following” for “following leukemic”, “G361 (malignant melanoma), MCF7 (breast adenocarcinoma), PLC/PRF/5 (liver hepatoma), PANC-1 (pancreatic carcinoma) and HCT116 (colon carcinoma).” for “K562 (human chronic myelogenous leukaemia), HL60 (human promyelocytic leukaemia), CEM (human lymphoblastoid leukaemia), THP1 (human monocytic cell line), MV4; 11 (acute myelocytic leukemia).”, “DMEM” for “RPMI”, “4000-10000” for “2000-5000”, “of a” for “of”, “16” for “8”

[7] = test system: MCF7 (breast adenocarcinoma); assay: MTT cytotoxicity assay, solid cancer cell line MCF7; format: cell-based; details: Homo sapiens, MCF7, 72 h, three days
Description: as §2, with “following” for “following leukemic”, “G361 (malignant melanoma), MCF7 (breast adenocarcinoma), PLC/PRF/5 (liver hepatoma), PANC-1 (pancreatic carcinoma) and HCT116 (colon carcinoma).” for “K562 (human chronic myelogenous leukaemia), HL60 (human promyelocytic leukaemia), CEM (human lymphoblastoid leukaemia), THP1 (human monocytic cell line), MV4; 11 (acute myelocytic leukemia).”, “DMEM” for “RPMI”, “4000-10000” for “2000-5000”, “of a” for “of”, “16” for “8”

[8] = test system: PLC/PRF/5 (liver hepatoma); assay: MTT cytotoxicity assay, solid cancer cell line PLC/PRF/5; format: cell-based; details: Homo sapiens, PLC-PRF-5, 72 h, three days
Description: as §2, with “following” for “following leukemic”, “G361 (malignant melanoma), MCF7 (breast adenocarcinoma), PLC/PRF/5 (liver hepatoma), PANC-1 (pancreatic carcinoma) and HCT116 (colon carcinoma).” for “K562 (human chronic myelogenous leukaemia), HL60 (human promyelocytic leukaemia), CEM (human lymphoblastoid leukaemia), THP1 (human monocytic cell line), MV4; 11 (acute myelocytic leukemia).”, “DMEM” for “RPMI”, “4000-10000” for “2000-5000”, “of a” for “of”, “16” for “8”

[9] = test system: PANC-1 (pancreatic carcinoma); assay: MTT cytotoxicity assay, solid cancer cell line PANC-1; format: cell-based; details: Homo sapiens, PANC-1, 72 h, three days
Description: as §2, with “following” for “following leukemic”, “G361 (malignant melanoma), MCF7 (breast adenocarcinoma), PLC/PRF/5 (liver hepatoma), PANC-1 (pancreatic carcinoma) and HCT116 (colon carcinoma).” for “K562 (human chronic myelogenous leukaemia), HL60 (human promyelocytic leukaemia), CEM (human lymphoblastoid leukaemia), THP1 (human monocytic cell line), MV4; 11 (acute myelocytic leukemia).”, “DMEM” for “RPMI”, “4000-10000” for “2000-5000”, “of a” for “of”, “16” for “8”

[10] = test system: HCT116 (colon carcinoma); assay: MTT cytotoxicity assay, solid cancer cell line HCT116; format: cell-based; details: Homo sapiens, HCT-116, 72 h, three days
Description: as §2, with “following” for “following leukemic”, “G361 (malignant melanoma), MCF7 (breast adenocarcinoma), PLC/PRF/5 (liver hepatoma), PANC-1 (pancreatic carcinoma) and HCT116 (colon carcinoma).” for “K562 (human chronic myelogenous leukaemia), HL60 (human promyelocytic leukaemia), CEM (human lymphoblastoid leukaemia), THP1 (human monocytic cell line), MV4; 11 (acute myelocytic leukemia).”, “DMEM” for “RPMI”, “4000-10000” for “2000-5000”, “of a” for “of”, “16” for “8”

[11] = biological target: T1, CDK5/p35 (Homo sapiens, UniProt Q00535); assay: CDK5/p35 kinase inhibition (33P-ATP, histone H1); format: biochemical; details: 0.15 μM ATP
T1 construct: purchased ProQinase GmbH
Description: CDK2/Cyclin E kinase was produced in Sf9 insect cells via baculoviral infection and purified on a NiNTA column (Qiagen). […] CDK5/p35 was purchased from ProQinase GmbH.
(§3) The reactions were stopped by adding 5 μL of 3% aq H3PO4. Aliquots were spotted onto P-81 phosphocellulose (Whatman), washed 3× with 0.5% aq H3PO4 and finally air-dried.

[12] = test system: HUVECs (human umbilical vein endothelial cells); assay: HUVEC proliferation assay (crystal violet); format: cell-based; details: Homo sapiens, HUVEC, 72 h, read-out: Inhibition of proliferation (EC50)
Description: (§4) To verify that novel compounds have anti-vascularisation properties, we analyzed their influence on the proliferation and migration of HUVECs. HUVECs (human umbilical vein endothelial cells) were purchased from Promocell (Heidelberg, Germany) and cultured in endothelial cell growth medium (ECGM, Promocell, Heidelberg, Germany) containing 10% FCS (Biochrom, Berlin, Germany). Experiments were performed using cells at passage 3.
For proliferation assay, 1.5×10^3 HUVECs were cultured for 24 h. Afterwards, cells were either left untreated or treated with novel compounds for 72 h. Proliferation assay was performed using crystal violet as described previously (Koltermann et al. 2007, Cell Mol. Life Sci. 64:1715-1722).

[13] = test system: HUVECs (human umbilical vein endothelial cells); assay: HUVEC migration (scratch) assay; format: cell-based; details: 16 h, read-out: Inhibition of migration (EC50)
Description: as §4
For migration assay, confluent HUVECs were scratched with a pipette tip and immediately treated with either starvation medium M199 (serum-free, negative control; PAN Biotech) or full endothelial cell growth medium (positive control). After 16 h, cells were fixed with 3% formaldehyde and images were taken using the TILLvisON system (Lochham, Germany) connected to an Axiovert 200 microscope (Zeiss, Germany). Evaluation of pictures was made by S.CO LifeScience (Garching, Germany). Migration was quantified as the ratio of the area covered with cells and the area of the cell free wound.

[14] = test system: breast carcinoma cell line MCF7; assay: Cell cycle profile by BrdU/propidium iodide flow cytometry; format: cell-based; details: asynchronously growing MCF7, 24 h, FIG. 1
Description: Sub-confluent cells were treated with test compounds at different concentrations for 24 h. The cultures were pulse-labeled with […] 5-bromo-20-deoxyuridine (BrdU) for 30 min at 37° C. prior to harvesting. The cells were then washed in PBS, fixed with 70% ethanol, and denatured in 2 M HCl. Following neutralization, the cells were stained with anti-BrdU fluorescein-labeled antibodies, washed, stained with propidium iodide and analyzed by flow cytometry using a 488 nm laser

[15] = biological target: T2, CDK2/Cyclin E (Homo sapiens, UniProt P24941); assay: CDK2/Cyclin E kinase inhibition (33P-ATP, histone H1); format: biochemical; details: 15 μM ATP
T2 construct: made in house; host or cells: Sf9 insect cells (baculovirus)
Description: CDK2/Cyclin E kinase was produced in Sf9 insect cells via baculoviral infection and purified on a NiNTA column (Qiagen). The kinase reactions were assayed with 1 mg/mL histone H1 in the presence of 15 μM ATP, 0.05 μCi [γ-^33P]ATP and of the test compound in a final volume of 10 μL, all in a reaction buffer (60 mM HEPES-NaOH, pH 7.5, 3 mM MgCl2, 3 mM MnCl2, 3 μM Na-orthovanadate, 1.2 mM DTT, 2.5 μg/50 μl PEG20.000). CDK5/p35 was purchased from ProQinase GmbH. The kinase reactions were assayed with 1 mg/mL histone H1 in the presence of 0.15 μM ATP, 0.05 μCi [γ-^33P]ATP and of the test compound in a final volume of 10 μL, all in a reaction buffer (60 mM HEPES-NaOH, pH 7.5, 3 mM MgCl2, 3 mM MnCl2, 3 μM Na-orthovanadate, 1.2 mM DTT, 2.5 μg/50 μl PEG20.000).
as §3

[16] = test system: caspases 3 and 7 in K562 cells; assay: Caspase-3/7 activity assay in K562 cells; format: cell-based, human; details: 24 hours, FIG. 2
Description: Measurement of proapoptotic properties of new compounds was based on quantification of enzymatic activities of caspases-3/7. Activity of cellular caspase-3/7 was measured according to Carrasco et al., 2003, BioTechniques, 34(5): 1064-67. Briefly, the cells were incubated in a 96-well plate overnight. Next day, the compounds in appropriate concentrations were added and cells were incubated for 24 hours. After incubation, 3× caspase-3/7 assay buffer (150 mM HEPES pH 7.4, 450 mM NaCl, 150 mM KCl, 30 mM MgCl2, 1.2 mM EGTA, 1.5% Nonidet P40, 0.3% CHAPS, 30% sucrose, 30 mM DTT, 3 mM PMSF) with 150 μM Ac-DEVD-AMC as a substrate (Sigma-Aldrich) was added to the wells and plates were incubated at 37° C. […]. The caspase activity was measured using Fluoroskan Ascent microplate reader (Labsystems) at 346 nm/442 nm (excitation/emission).

T1 sequence (Q00535 whole entry): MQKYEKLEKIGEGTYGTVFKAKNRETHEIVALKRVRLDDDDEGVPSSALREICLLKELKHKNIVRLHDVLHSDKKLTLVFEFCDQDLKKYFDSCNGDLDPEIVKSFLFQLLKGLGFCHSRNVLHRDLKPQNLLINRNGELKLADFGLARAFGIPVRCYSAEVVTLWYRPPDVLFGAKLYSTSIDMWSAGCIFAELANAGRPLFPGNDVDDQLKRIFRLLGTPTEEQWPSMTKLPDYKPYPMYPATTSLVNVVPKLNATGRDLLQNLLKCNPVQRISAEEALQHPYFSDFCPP
T1 sequence (Q15078 whole entry partner): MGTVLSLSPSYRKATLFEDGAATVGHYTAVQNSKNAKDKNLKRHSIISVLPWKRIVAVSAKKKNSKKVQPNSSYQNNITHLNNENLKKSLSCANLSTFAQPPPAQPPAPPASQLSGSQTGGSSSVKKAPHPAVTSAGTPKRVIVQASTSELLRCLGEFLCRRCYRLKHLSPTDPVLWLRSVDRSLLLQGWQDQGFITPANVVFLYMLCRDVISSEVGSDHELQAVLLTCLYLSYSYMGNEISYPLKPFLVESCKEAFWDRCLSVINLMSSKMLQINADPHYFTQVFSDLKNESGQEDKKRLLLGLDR

SMILES	IC50 [1] [µM]	IC50 [2] [µM]	IC50 [3] [µM]	IC50 [4] [µM]	IC50 [5] [µM]	IC50 [6] [µM]	IC50 [7] [µM]	IC50 [8] [µM]	IC50 [9] [µM]	IC50 [10] [µM]	IC50 [11] [µM]	EC50 [12] [nM]	EC50 [13] [nM]	effect on the cell cycle of MCF7 [14]	IC50 [15] [µM]	caspase-3/7 activity in K562 cells [16]
CC(C)c1n[nH]c2c(NCc3ccc(-c4ccccn4)cc3)nc(S(C)(=O)=O)nc12 [Compound 7]	0.64	0.52	0.93	1.64	1.69	0.43	0.46	0.21	1.56	1.97	0.165	648	550	–	–	–
CC(C)c1[nH]nc2c(NCc3ccc(-c4ccccn4)cc3)nc(N3CCNCC3)nc12 [Compound 13]	0.02	0.02	0.01	0.03	0.04	0.02	0.02	0.05	0.06	0.03	0.119	9	26	–	–	–
CC(C)c1[nH]nc2c(NCc3ccc(-c4ccccn4)cc3)nc(N3CCSCC3)nc12 [Compound 15]	0.59	0.6	0.23	0.31	0.87	0.42	0.53	0.2	0.34	0.69	0.114	153	–	potently arrested cells in S, G2 and M phases	–	–
CC(C)c1[nH]nc2c(NCc3ccc(-c4ccccn4)cc3)nc(NC[C@@H](C)O)nc12 [Compound 27]	0.06	0.02	0.01	0.03	0.06	0.08	0.03	0.04	0.07	0.1	–	33	35	–	0.021	–
CC(C)c1[nH]nc2c(NCc3ccc(-c4ccccn4)cc3)nc(NCC(C)(C)O)nc12 [Compound 33]	0.03	0.02	0.01	0.01	0.07	0.03	0.02	0.05	0.01	0.04	0.001	14	22	–	–	potent dose-dependent activation of the caspases in nanomolar concentrations
CC(C)c1[nH]nc2c(NCc3ccc(-c4ccccn4)cc3)nc(NCCN(C)C)nc12 [Compound 47]	0.13	0.09	0.07	0.06	0.12	0.47	0.23	0.24	0.2	0.34	2.14	181	–	potently arrested cells in S, G2 and M phases	–	–
CC(C)c1[nH]nc2c(NCc3ccc(-c4ccccn4)cc3)nc(NC3CCCCC3N)nc12 (centres unmarked) [Compound 65]	0.3	0.22	0.14	0.11	0.38	0.04	0.06	0.05	0.02	0.08	0.048	5	77	–	0.023	–
CC[C@H](CO)Nc1nc(NCc2ccc(-c3ccccn3)cc2)c2n[nH]c(C(C)C)c2n1 [Compound 83]	–	0.02	0.06	0.01	0.07	0.04	0.05	0.02	0.02	0.03	–	34	39	–	0.054	–
CC[C@@H](CO)Nc1nc(NCc2ccc(-c3ccccn3)cc2)c2n[nH]c(C(C)C)c2n1 [Compound 84]	–	–	–	–	–	–	–	–	–	–	–	–	–	potently arrested cells in S, G2 and M phases	0.098	–
